We go through seven compounds from ChEMBL document CHEMBL5120811, “Nocathiacin, Thiazomycin, and Polar Analogs Are Highly Effective Agents against Toxigenic Clostridioides difficile” (J Nat Prod, 2022).

Values after ≈ are worked out from the molar mass of the structure shown. Some results are limits rather than exact numbers.

Data set [1] is described as follows: Selectivity ratio of MIC for Bacteroides fragilis ATCC 25285 to MIC for Clostridioides difficile. In kind it is functional.
Data set [2] concerns Clostridioides difficile. Put plainly: Antibacterial activity against Clostridioides difficile assessed as inhibition of bacterial growth by CLSI based agar dilution susceptibility analysis. In kind it is functional.
A further data set concerns Bacteroides fragilis. Description: Antibacterial activity against Bacteroides fragilis ATCC 25285 assessed as inhibition of bacterial growth by CLSI based agar dilution susceptibility analysis. In kind it is functional.
For data set [3], the system named is Clostridioides difficile. Description: Antibacterial activity against Clostridioides difficile SM8-6865 in CDAD golden hamster model assessed as protection from lethal infection at 6.25 mg/kg, po administered twice daily for 4 days. In kind it is functional. The conditions noted are these: time 4 day.
Data set [4] relates to Clostridioides difficile. Description: Antibacterial activity against Clostridioides difficile SM8-6865 in CDAD golden hamster model assessed as log reduction in cecum bacterial content at 6.25 mg/kg, po administered twice daily for 4 days. Conditions: time 4 day. In kind it is functional.
The nature of data set [5]: Drug concentration in golden hamster caecum at 6.25 mg/kg, po measured after 1 hr by LC-MS/MS analysis. In kind it is ADME, organism-based, Mesocricetus auratus. Conditions: read-out: Ct.
Data set [6] in a line: Drug concentration in golden hamster caecum at 6.25 mg/kg, po measured after 24 hrs by LC-MS/MS analysis. In kind it is ADME, organism-based, Mesocricetus auratus. The conditions noted are these: read-out: Ct.
Data set [7] deals with Clostridioides difficile. Put plainly: Antibacterial activity against Clostridioides difficile SM8-6865 in CDAD golden hamster model assessed as protection from lethal infection at 0.39 o 1.56 mg/kg, po administered twice daily for 4 days. In kind it is functional. Conditions: time 4 day.
The subject of data set [8] is Clostridioides difficile. Description: Antibacterial activity against Clostridioides difficile SM8-6865 in CDAD golden hamster model assessed as protection from lethal infection at 1.56 mg/kg, po administered twice daily for 4 days. In kind it is functional. Conditions: time 4 day.
The subject of data set [9] is Clostridioides difficile. Description: Antibacterial activity against Clostridioides difficile SM8-6865 in CDAD golden hamster model assessed as log reduction in cecum bacterial content at 1.56 mg/kg, po administered twice daily for 4 days. In kind it is functional. The conditions noted are these: time 4 day.
Data set [10] deals with Clostridioides difficile. Put plainly: Antibacterial activity against Clostridioides difficile assessed as inhibition of bacterial growth incubated for 18 to 24 hrs by broth microdilution method. Conditions: time 18-24 hrs. In kind it is functional.
Data set [11] has as its system Clostridioides difficile. Put plainly: Antibacterial activity against Clostridioides difficile SM8-6865 in CDAD golden hamster model assessed as protection from lethal infection at 1.56 mg/kg, po administered once daily for 4 days. In kind it is functional. Conditions: time 4 day.
Data set [12] relates to Clostridioides difficile. Put plainly: Antibacterial activity against Clostridioides difficile SM8-6865 in CDAD golden hamster model assessed as log reduction in cecum bacterial content at 1.56 mg/kg, po administered once daily for 4 days. In kind it is functional. Conditions: time 4 day.
A short description of data set [13]: Toxicity in Clostridioides difficile SM8-6865 infected golden hamster model assessed as survival at 1.56 mg/kg, po administered once daily for 4 days. Conditions: in vivo, 96 h, time 4 day. In kind it is organism-based, Mesocricetus auratus.

As for `CO/C(C)=C1/NC(=O)[C@H]([C@@H](C)O)NC(=O)c2csc(n2)-c2cc(O)c(-c3nc(C(=O)NCCCN4CCOCC4)cs3)nc2-c2csc(n2)[C@@H]2COC(=O)c3c4c5c(cccc5n3O)COC(=O)[C@@H](O[C@H]3C[C@](C)(O)[C@H](N(C)C)[C@H](C)O3)[C@@H](OC4)[C@H](NC(=O)c3csc1n3)c1nc(cs1)C(=O)N2`, the Selectivity ratio in data set [1] amounted to 100. For the same compound, in the data set on Clostridioides difficile [2], the MIC50 came out at 0.03 µg/mL (≈ 0.0201 µM). In the data set with Bacteroides fragilis, the MIC came to 4 µg/mL (≈ 2.67 µM). In addition, the Activity with Clostridioides difficile [3] was 100%; with Clostridioides difficile [4] it was above 5 log10CFU/g; with Clostridioides difficile [7] it was 16%. The concentration at 1 h in [5] worked out at 6560 nM. In data set [6], the concentration at 24 h stood at 80 nM.

With `C=C(NC(=O)c1csc(-c2nc3c(cc2O)-c2nc(cs2)C(=O)N[C@@H]([C@@H](C)O)C(=O)N/C(=C(\C)OC)c2nc(cs2)C(=O)N[C@@H]2c4nc(cs4)C(=O)N[C@@H](COC(=O)c4c5c6c(cccc6n4O)COC(=O)[C@@H](O[C@H]4C[C@](C)(O)[C@H](N(C)C)[C@H](C)O4)[C@H]2OC5)c2nc-3cs2)n1)C(N)=O` [MJ347-81F4 A], the Selectivity ratio in [1] was found to be 100. Further, in the data set on Clostridioides difficile [2], the MIC50 stood at 0.03 µg/mL (≈ 0.0209 µM). Besides, the results for the minimum inhibitory concentration (MIC) in the data set with Bacteroides fragilis and with Clostridioides difficile [10] were 4 µg/mL (≈ 2.78 µM) and 0.06 µg/mL (≈ 0.0417 µM), respectively. In addition, the Activity in the data set on Clostridioides difficile [3] is on record as 100%; in the data set on Clostridioides difficile [4], above 5 log10CFU/g; with Clostridioides difficile [8] it was 66%; in the data set with Clostridioides difficile [9], 4 log10CFU/g. Also, in data set [5], the concentration at 1 h came out at 5400 nM. The concentration at 24 h in data set [6] was 190 nM.

With `Cc1ncc([N+](=O)[O-])n1CCO` [METRONIDAZOLE], in the data set on Clostridioides difficile [2], the MIC50 was at most 0.015 µg/mL. Further, in the data set with Bacteroides fragilis, the MIC was above 16 µg/mL.

Consider `CCc1c(Cl)c(O)c(Cl)c(O)c1C(=O)O[C@H]1[C@H](O)[C@H](OC)[C@H](OC/C2=C\C=C\C[C@H](O)/C(C)=C/[C@H](CC)[C@@H](O[C@@H]3OC(C)(C)[C@@H](OC(=O)C(C)C)[C@H](O)[C@@H]3O)/C(C)=C/C(C)=C/C[C@@H]([C@@H](C)O)OC2=O)O[C@@H]1C` [FIDAXOMICIN], for which the MIC50 with Clostridioides difficile [2] was 0.5 µg/mL (≈ 0.473 µM). Also, in the data set on Bacteroides fragilis, the minimum inhibitory concentration (MIC) is above 16 µg/mL.

For the compound `C=C(NC(=O)c1csc(-c2nc3c(cc2O)-c2nc(cs2)C(=O)N[C@@H]([C@@H](C)O)C(=O)N/C(=C(\C)OC)c2nc(cs2)C(=O)N[C@@H]2c4nc(cs4)C(=O)N[C@@H](COC(=O)c4c5c6c(cccc6n4O)COC(=O)[C@@H](O[C@H]4C[C@]6(C)OCN(C)[C@@H]6[C@H](C)O4)[C@H]2OC5)c2nc-3cs2)n1)C(N)=O` [THIAZOMYCIN], the Selectivity ratio in [1] was 100. In addition, in the data set on Clostridioides difficile [2], the MIC50 worked out at 0.06 µg/mL (≈ 0.0418 µM). Moreover, in the data set with Bacteroides fragilis, the MIC was 8 µg/mL (≈ 5.57 µM).

As for `CN[C@H](CC(C)C)C(=O)N[C@H]1C(=O)N[C@@H](CC(N)=O)C(=O)N[C@H]2C(=O)N[C@H]3C(=O)N[C@H](C(=O)N[C@H](C(=O)O)c4cc(O)cc(O)c4-c4cc3ccc4O)[C@H](O)c3ccc(c(Cl)c3)Oc3cc2cc(c3O[C@@H]2O[C@H](CO)[C@@H](O)[C@H](O)[C@H]2O[C@H]2C[C@](C)(N)[C@H](O)[C@H](C)O2)Oc2ccc(cc2Cl)[C@H]1O` [VANCOMYCIN], the MIC50 in the data set with Clostridioides difficile [2] turned out to be 0.25 µg/mL (≈ 0.173 µM). In the data set on Bacteroides fragilis, the MIC was 0.5 µg/mL (≈ 0.345 µM). The results for the Activity (with Clostridioides difficile [11]; with Clostridioides difficile [12]; in data set [13]) were 100%, above 5 log10CFU/g and “Non-Toxic”, respectively.

Consider `CO/C(C)=C1/NC(=O)[C@H]([C@@H](C)O)NC(=O)c2csc(n2)-c2cc(OC)c(-c3nc(C(=O)NCCCN4CCOCC4)cs3)nc2-c2csc(n2)[C@@H]2COC(=O)c3c4c5c(cccc5n3O)COC(=O)[C@@H](O[C@H]3C[C@](C)(O)[C@H](N(C)C)[C@H](C)O3)[C@@H](OC4)[C@H](NC(=O)c3csc1n3)c1nc(cs1)C(=O)N2`, for which, in [1], the Selectivity ratio turned out to be 100. In addition, in the data set on Clostridioides difficile [2], the MIC50 was at most 0.015 µg/mL. Further, the MIC in the data set with Bacteroides fragilis was 4 µg/mL (≈ 2.65 µM).
